{"source": "patent US11649255B2", "about": "“Indazoles as hematopoietic progenitor kinase 1 (HPK1) inhibitors and methods using same” (1st Biotherapeutics, Inc., priority 2020, dated 2023)", "target": "recombinant human HPK1 (Homo sapiens (Human), UniProt Q92918)", "sequence (Q92918 whole entry)": "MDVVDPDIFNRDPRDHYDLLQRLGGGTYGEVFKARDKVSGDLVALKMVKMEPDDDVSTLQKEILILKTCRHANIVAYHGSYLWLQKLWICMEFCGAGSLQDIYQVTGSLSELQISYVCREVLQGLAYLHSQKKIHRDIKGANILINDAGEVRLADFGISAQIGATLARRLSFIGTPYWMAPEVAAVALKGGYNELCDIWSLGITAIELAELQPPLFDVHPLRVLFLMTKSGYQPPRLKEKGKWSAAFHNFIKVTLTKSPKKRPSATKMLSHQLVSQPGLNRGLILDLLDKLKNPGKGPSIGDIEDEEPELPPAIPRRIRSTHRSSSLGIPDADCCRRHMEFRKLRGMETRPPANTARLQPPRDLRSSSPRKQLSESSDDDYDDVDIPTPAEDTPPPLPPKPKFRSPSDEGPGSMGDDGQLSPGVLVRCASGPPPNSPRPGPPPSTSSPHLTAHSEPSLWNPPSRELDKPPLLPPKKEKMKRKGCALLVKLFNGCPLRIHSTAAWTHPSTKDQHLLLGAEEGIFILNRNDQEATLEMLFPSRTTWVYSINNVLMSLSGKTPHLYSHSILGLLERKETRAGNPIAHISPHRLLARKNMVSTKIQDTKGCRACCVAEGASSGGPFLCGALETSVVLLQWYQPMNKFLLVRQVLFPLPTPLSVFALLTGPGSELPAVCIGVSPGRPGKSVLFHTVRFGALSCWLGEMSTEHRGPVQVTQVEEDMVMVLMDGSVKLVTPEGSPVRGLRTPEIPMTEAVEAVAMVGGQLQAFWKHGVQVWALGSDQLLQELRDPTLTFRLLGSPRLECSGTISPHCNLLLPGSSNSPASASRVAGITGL", "assay": "HPK1 kinase assay (ADP-Glo)", "assay_type": "biochemical", "conditions": "25 μM ATP, MBP substrate", "outline": "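Activity was read as ADP formed, detected by ADP-Glo luminescence after the reaction of 5 ng recombinant human HPK1 with MBP and ATP (stocks 0.5 μg/μl and 25 μM) for 40 min at 30 °C. Buffer was Tris pH 7.5 with MgCl2, BSA and DTT, with compound in 0.5% DMSO. IC50 came from inhibition curves.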"}
{"molecule": "CC(C)(C#N)Nc1c(F)c(Cl)c(-c2ccn3nc(NC(=O)[C@@H]4C[C@@H]4F)cc3c2)c2cn[nH]c12", "note": "[Example 638, (1S,2S)-N-(5-(5-chloro-7-((2-cyanopropan-2-yl)amino)-6-fluoro-1H-indazol-4-yl)pyrazolo[1,5-a]pyridin-2-yl)-2-fluorocyclopropane-1-carboxamide]", "values": [{"measurement": "IC50", "value": "< 100", "unit": "nM"}]}
{"molecule": "C[S+]([O-])c1c(F)c(Cl)c(-c2ccc3nc(NC(=O)[C@@H]4C[C@@H]4F)sc3c2)c2cn[nH]c12", "note": "(stereo partly drawn) [Example 63, (1S,2S)-N-(6-(5-chloro-6-fluoro-7-(methylsulfinyl)-1H-indazol-4-yl)benzo[d]thiazol-2-yl)-2-fluorocyclopropane-1-carboxamide]", "values": [{"measurement": "IC50", "value": "< 100", "unit": "nM"}]}
{"molecule": "COCCOc1ccc2[nH]ncc2c1-c1ccc2nc(NC(=O)[C@@H]3C[C@@H]3F)sc2c1", "note": "[Example 34, (1S,2S)-2-fluoro-N-(6-(5-(2-methoxyethoxy)-1H-indazol-4-yl)benzo[d]thiazol-2-yl)cyclopropane-1-carboxamide]", "values": [{"measurement": "IC50", "value": "> 1000", "unit": "nM"}]}
{"molecule": "CC(NC(=O)C(F)F)c1c(F)c(Cl)c(-c2ccn3nc(NC(=O)[C@@H]4C[C@@H]4F)cc3c2)c2cn[nH]c12", "note": "(stereo partly drawn) [Example 665, (1S,2S)-N-(5-(5-chloro-7-(1-(2,2-difluoroacetamido)ethyl)-6-fluoro-1H-indazol-4-yl)pyrazolo[1,5-a]pyridin-2-yl)-2-fluorocyclopropane-1-carboxamide]", "values": [{"measurement": "IC50", "value": "< 100", "unit": "nM"}]}
{"molecule": "C[S+]([O-])c1c(F)cc2[nH]ncc2c1-c1ccc2nc(NC(=O)[C@@H]3C[C@@H]3F)sc2n1", "note": "(stereo partly drawn) [Example 164, (1S,2S)-2-fluoro-N-(5-(6-fluoro-5-(methylsulfinyl)-1H-indazol-4-yl)thiazolo[5,4-b]pyridin-2-yl)cyclopropane-1-carboxamide]", "values": [{"measurement": "IC50", "value": "> 1000", "unit": "nM"}]}
{"molecule": "Cc1c(F)cc2[nH]ncc2c1-c1ccc2nc(NC(=O)[C@@H]3C[C@@H]3F)sc2n1", "note": "[Example 147, (1S,2S)-2-fluoro-N-(5-(6-fluoro-5-methyl-1H-indazol-4-yl)thiazolo[5,4-b]pyridin-2-yl)cyclopropane-1-carboxamide]", "values": [{"measurement": "IC50", "value": "< 100", "unit": "nM"}]}
{"molecule": "Cc1c(F)c(S(C)(=O)=O)c2[nH]ncc2c1-c1ccn2nc(NC(=O)[C@@H]3C[C@@H]3F)cc2c1", "note": "[Example 489, (1S,2S)-2-fluoro-N-(5-(6-fluoro-5-methyl-7-(methylsulfonyl)-1H-indazol-4-yl)pyrazolo[1,5-a]pyridin-2-yl)cyclopropane-1-carboxamide]", "values": [{"measurement": "IC50", "value": "< 100", "unit": "nM"}]}
{"molecule": "O=C(Nc1cc2cc(-c3c(Cl)c(F)c(NC4CCC(O)C4)c4[nH]ncc34)ccn2n1)[C@@H]1C[C@@H]1F", "note": "(stereo partly drawn) [Example 559, (1S,2S)-N-(5-(5-chloro-6-fluoro-7-((3-hydroxycyclopentyl)amino)-1H-indazol-4-yl)pyrazolo[1,5-a]pyridin-2-yl)-2-fluorocyclopropane-1-carboxamide]", "values": [{"measurement": "IC50", "value": "< 100", "unit": "nM"}]}
{"molecule": "O=C(Nc1nc2ccc(-c3c(C(F)(F)F)ccc4[nH]ncc34)cc2s1)C1CC1", "note": "[Example 17, N-(6-(5-(trifluoromethyl)-1H-indazol-4-yl)benzo[d]thiazol-2-yl)cyclopropanecarboxamide]", "values": [{"measurement": "IC50", "value": "101 to 500", "unit": "nM"}]}
{"molecule": "CNc1ccc2[nH]ncc2c1-c1ccc2nc(NC(=O)C3CC3)cn2c1", "note": "[Example 229, N-(6-(5-(methylamino)-1H-indazol-4-yl)imidazo[1,2-a]pyridin-2-yl)cyclopropanecarboxamide]", "values": [{"measurement": "IC50", "value": "< 100", "unit": "nM"}]}
{"molecule": "CSc1ccc(-c2ccn3nc(NC(=O)[C@@H]4C[C@@H]4F)cc3c2)c2cn[nH]c12", "note": "[Example 593, (1S,2S)-2-fluoro-N-(5-(7-(methylthio)-1H-indazol-4-yl)pyrazolo[1,5-a]pyridin-2-yl)cyclopropane-1-carboxamide]", "values": [{"measurement": "IC50", "value": "< 100", "unit": "nM"}]}
{"molecule": "Cc1c(F)c(OCCN(C)C(N)=O)c2[nH]ncc2c1-c1ccn2nc(NC(=O)[C@@H]3C[C@@H]3F)cc2c1", "note": "[Example 539, (1S,2S)-2-fluoro-N-(5-(6-fluoro-5-methyl-7-(2-(1-methylureido)ethoxy)-1H-indazol-4-yl)pyrazolo[1,5-a]pyridin-2-yl)cyclopropane-1-carboxamide]", "values": [{"measurement": "IC50", "value": "< 100", "unit": "nM"}]}
{"molecule": "CNC(=O)c1c(F)c(Cl)c(-c2ccc3nc(NC(=O)[C@@H]4C[C@@H]4F)sc3n2)c2cn[nH]c12", "note": "[Example 195, 5-chloro-6-fluoro-4-(2-((1S,2S)-2-fluorocyclopropane-1-carboxamido)thiazolo[5,4-b]pyridin-5-yl)-N-methyl-1H-indazole-7-carboxamide]", "values": [{"measurement": "IC50", "value": "101 to 500", "unit": "nM"}]}
{"molecule": "CN(C)c1c(F)cc2[nH]ncc2c1-c1ccn2nc(NC(=O)[C@@H]3C[C@@H]3F)cc2c1", "note": "[Example 454, (1S,2S)-N-(5-(5-(dimethylamino)-6-fluoro-1H-indazol-4-yl)pyrazolo[1,5-a]pyridin-2-yl)-2-fluorocyclopropane-1-carboxamide]", "values": [{"measurement": "IC50", "value": "101 to 500", "unit": "nM"}]}
{"molecule": "C[S+]([O-])c1c(F)cc2[nH]ncc2c1-c1cc2sc(NC(=O)[C@@H]3C[C@@H]3F)nc2cn1", "note": "(stereo partly drawn) [Example 220, (1S,2S)-2-fluoro-N-(6-(6-fluoro-5-(methylsulfinyl)-1H-indazol-4-yl)thiazolo[4,5-c]pyridin-2-yl)cyclopropane-1-carboxamide]", "values": [{"measurement": "IC50", "value": "> 1000", "unit": "nM"}]}
{"molecule": "Cc1c(F)c(Cl)c2[nH]ncc2c1-c1ccc2nc(NC(=O)[C@@H]3C[C@@H]3F)sc2c1", "note": "[Example 51, (1S,2S)-N-(6-(7-chloro-6-fluoro-5-methyl-1H-indazol-4-yl)benzo[d]thiazol-2-yl)-2-fluorocyclopropane-1-carboxamide]", "values": [{"measurement": "IC50", "value": "< 100", "unit": "nM"}]}
{"molecule": "CP(C)(=O)c1c(F)c(Cl)c(-c2ccc3nc(NC(=O)[C@@H]4C[C@@H]4F)sc3c2)c2cn[nH]c12", "note": "[Example 60, (1S,2S)-N-(6-(5-chloro-7-(dimethylphosphoryl)-6-fluoro-1H-indazol-4-yl)benzo[d]thiazol-2-yl)-2-fluorocyclopropane-1-carboxamide]", "values": [{"measurement": "IC50", "value": "> 1000", "unit": "nM"}]}
{"molecule": "O=C(Nc1nc2ccc(-c3c(Cl)c(F)cc4[nH]ncc34)cc2s1)[C@@H]1C[C@@H]1F", "note": "[Example 41, (1S,2S)-N-(6-(5-chloro-6-fluoro-1H-indazol-4-yl)benzo[d]thiazol-2-yl)-2-fluorocyclopropane-1-carboxamide]", "values": [{"measurement": "IC50", "value": "101 to 500", "unit": "nM"}]}
{"molecule": "CCOc1cc(C)c(-c2ccn3nc(NC(=O)[C@@H]4C[C@@H]4F)cc3c2)c2cn[nH]c12", "note": "[Example 511, (1S,2S)-N-(5-(7-ethoxy-5-methyl-1H-indazol-4-yl)pyrazolo[1,5-a]pyridin-2-yl)-2-fluorocyclopropane-1-carboxamide]", "values": [{"measurement": "IC50", "value": "< 100", "unit": "nM"}]}
{"molecule": "CC(=O)c1c(F)c(Cl)c(-c2ccn3nc(NC(=O)[C@@H]4C[C@@H]4F)cc3c2)c2cn[nH]c12", "note": "[Example 575, (1S,2S)-N-(5-(7-acetyl-5-chloro-6-fluoro-1H-indazol-4-yl)pyrazolo[1,5-a]pyridin-2-yl)-2-fluorocyclopropane-1-carboxamide]", "values": [{"measurement": "IC50", "value": "< 100", "unit": "nM"}]}
{"molecule": "O=C(Nc1nc2ccc(-c3c(F)ccc4[nH]ncc34)cc2s1)C1CC1", "note": "[Example 15, N-(6-(5-fluoro-1H-indazol-4-yl)benzo[d]thiazol-2-yl)cyclopropanecarboxamide]", "values": [{"measurement": "IC50", "value": "101 to 500", "unit": "nM"}]}
{"molecule": "CCc1n[nH]c2cc(F)c(C)c(-c3ccn4nc(NC(=O)[C@@H]5C[C@@H]5F)cc4c3)c12", "note": "[Example 475, (1S,2S)-N-(5-(3-ethyl-6-fluoro-5-methyl-1H-indazol-4-yl)pyrazolo[1,5-a]pyridin-2-yl)-2-fluorocyclopropane-1-carboxamide]", "values": [{"measurement": "IC50", "value": "> 1000", "unit": "nM"}]}
{"molecule": "Cc1c(F)cc2[nH]nc(Cl)c2c1-c1ccn2nc(NC(=O)[C@@H]3C[C@@H]3F)cc2c1", "note": "[Example 469, (1S,2S)-N-(5-(3-chloro-6-fluoro-5-methyl-1H-indazol-4-yl)pyrazolo[1,5-a]pyridin-2-yl)-2-fluorocyclopropane-1-carboxamide]", "values": [{"measurement": "IC50", "value": "< 100", "unit": "nM"}]}
{"molecule": "CC(Nc1c(F)c(Cl)c(-c2ccn3nc(NC(=O)[C@@H]4C[C@@H]4F)cc3c2)c2cn[nH]c12)C1CC1", "note": "(stereo partly drawn) [Example 653, (1S,2S)-N-(5-(5-chloro-7-((1-cyclopropylethyl)amino)-6-fluoro-1H-indazol-4-yl)pyrazolo[1,5-a]pyridin-2-yl)-2-fluorocyclopropane-1-carboxamide]", "values": [{"measurement": "IC50", "value": "< 100", "unit": "nM"}]}
{"molecule": "O=C(Nc1cn2cc(-c3c(Cl)c(F)c(Br)c4[nH]ncc34)ccc2n1)[C@@H]1C[C@@H]1F", "note": "[Example 261, (1S,2S)-N-(6-(7-bromo-5-chloro-6-fluoro-1H-indazol-4-yl)imidazo[1,2-a]pyridin-2-yl)-2-fluorocyclopropane-1-carboxamide]", "values": [{"measurement": "IC50", "value": "< 100", "unit": "nM"}]}
{"molecule": "CN1CCN(c2c(F)c(Cl)c(-c3ccc4nc(NC(=O)[C@@H]5C[C@@H]5F)sc4c3)c3cn[nH]c23)CC1", "note": "[Example 75, (1S,2S)-N-(6-(5-chloro-6-fluoro-7-(4-methylpiperazin-1-yl)-1H-indazol-4-yl)benzo[d]thiazol-2-yl)-2-fluorocyclopropane-1-carboxamide]", "values": [{"measurement": "IC50", "value": "101 to 500", "unit": "nM"}]}
{"molecule": "COc1c(F)cc2[nH]ncc2c1-c1ccc2nc(NC(=O)[C@@H]3C[C@@H]3F)sc2n1", "note": "[Example 155, (1S,2S)-2-fluoro-N-(5-(6-fluoro-5-methoxy-1H-indazol-4-yl)thiazolo[5,4-b]pyridin-2-yl)cyclopropane-1-carboxamide]", "values": [{"measurement": "IC50", "value": "< 100", "unit": "nM"}]}
{"molecule": "CC(=O)NC(C)c1c(F)c(Cl)c(-c2ccn3nc(NC(=O)[C@@H]4C[C@@H]4F)cc3c2)c2cn[nH]c12", "note": "(stereo partly drawn) [Example 663, (1S,2S)-N-(5-(7-(1-acetamidoethyl)-5-chloro-6-fluoro-1H-indazol-4-yl)pyrazolo[1,5-a]pyridin-2-yl)-2-fluorocyclopropane-1-carboxamide]", "values": [{"measurement": "IC50", "value": "< 100", "unit": "nM"}]}
{"molecule": "CN(CC(F)(F)F)C(=O)c1c(F)c(Cl)c(-c2ccc3nc(NC(=O)[C@@H]4C[C@@H]4F)cn3c2)c2cn[nH]c12", "note": "[Example 347, 5-chloro-6-fluoro-4-(2-((1S,2S)-2-fluorocyclopropane-1-carboxamido)imidazo[1,2-a]pyridin-6-yl)-N-methyl-N-(2,2,2-trifluoroethyl)-1H-indazole-7-carboxamide]", "values": [{"measurement": "IC50", "value": "< 100", "unit": "nM"}]}
{"molecule": "NC1CCCN(c2c(F)c(Cl)c(-c3ccc4nc(NC(=O)[C@@H]5C[C@@H]5F)sc4c3)c3cn[nH]c23)C1", "note": "(stereo partly drawn) [Example 84, (1S,2S)-N-(6-(7-(3-aminopiperidin-1-yl)-5-chloro-6-fluoro-1H-indazol-4-yl)benzo[d]thiazol-2-yl)-2-fluorocyclopropane-1-carboxamide]", "values": [{"measurement": "IC50", "value": "< 100", "unit": "nM"}]}
